Experimental data taken from US20120270929A1, “MODULATION OF TTC39 EXPRESSION TO INCREASE HDL” (ISIS Pharmaceuticals, Inc., priority 2009, published 2012).
Oligonucleotides are written 5' to 3', each unit as a sugar letter and its base; * is a phosphorothioate linkage, no mark a phosphodiester; rarer units and linkages stand in square brackets, end groups in braces. Plain capitals give the bases only. e = 2'-O-(2-methoxyethyl) (MOE); [5mC] = 5-methylcytosine; d = 2'-deoxy (DNA)

Each substance was assayed on murine TTC39C mRNA (assay: Dose-dependent antisense inhibition of murine TTC39C in mouse primary hepatocytes). Conditions: 500.0 nM, electroporation, ~16 h.
Format: cell-based
Description: Thirty antisense oligonucleotides were selected from the study described in Example 8 and further tested at various doses in mouse primary hepatocytes. Cells were plated at a density of 30,000 cells per well and transfected using electroporation with 500 nM, 1,000 nM, 2,000 nM, 4,000 nM, and 8,000 nM concentrations of antisense oligonucleotide, as specified in Table 30. After a treatment period of approximately 16 hours, RNA was isolated from the cells and TTC39C mRNA levels were measured by quantitative real-time PCR. Murine primer probe set RTS3266 was used to measure mRNA levels. TTC39C mRNA levels were adjusted according to total RNA content, as measured by RIBOGREEN®. Results are presented as percent inhibition of TTC39C, relative to untreated control cells.

| Substance | percent inhibition of TTC39C mRNA [%] |
| --- | --- |
| ISIS 474654: 5-10-5 MOE gapmer antisense oligonucleotide targeting murine TTC39C (antisense eT*e[5mC]*eA*eG*e[5mC]*dT*dA*d[5mC]*dA*dG*dA*dA*d[5mC]*dG*d[5mC]*eA*eG*eG*eG*eT) | 11 |

Same assay, conditions: 1000.0 nM, electroporation, ~16 h

| Substance | percent inhibition of TTC39C mRNA [%] |
| --- | --- |
| ISIS 474654: 5-10-5 MOE gapmer antisense oligonucleotide targeting murine TTC39C (antisense eT*e[5mC]*eA*eG*e[5mC]*dT*dA*d[5mC]*dA*dG*dA*dA*d[5mC]*dG*d[5mC]*eA*eG*eG*eG*eT) | 14 |

Same assay, conditions: 2000.0 nM, electroporation, ~16 h

| Substance | percent inhibition of TTC39C mRNA [%] |
| --- | --- |
| ISIS 474654: 5-10-5 MOE gapmer antisense oligonucleotide targeting murine TTC39C (antisense eT*e[5mC]*eA*eG*e[5mC]*dT*dA*d[5mC]*dA*dG*dA*dA*d[5mC]*dG*d[5mC]*eA*eG*eG*eG*eT) | 38 |

Same assay, conditions: 4000.0 nM, electroporation, ~16 h

| Substance | percent inhibition of TTC39C mRNA [%] |
| --- | --- |
| ISIS 474654: 5-10-5 MOE gapmer antisense oligonucleotide targeting murine TTC39C (antisense eT*e[5mC]*eA*eG*e[5mC]*dT*dA*d[5mC]*dA*dG*dA*dA*d[5mC]*dG*d[5mC]*eA*eG*eG*eG*eT) | 60 |

Same assay, conditions: 8000.0 nM, electroporation, ~16 h

| Substance | percent inhibition of TTC39C mRNA [%] |
| --- | --- |
| ISIS 474654: 5-10-5 MOE gapmer antisense oligonucleotide targeting murine TTC39C (antisense eT*e[5mC]*eA*eG*e[5mC]*dT*dA*d[5mC]*dA*dG*dA*dA*d[5mC]*dG*d[5mC]*eA*eG*eG*eG*eT) | 74 |

Same assay, conditions: mouse primary hepatocytes, electroporation, ~16 h

| Substance | IC50 [µM] |
| --- | --- |
| ISIS 474654: 5-10-5 MOE gapmer antisense oligonucleotide targeting murine TTC39C (antisense eT*e[5mC]*eA*eG*e[5mC]*dT*dA*d[5mC]*dA*dG*dA*dA*d[5mC]*dG*d[5mC]*eA*eG*eG*eG*eT) | 3.1 |

What follows are substances tested on murine TTC39B mRNA (assay: Antisense inhibition of murine TTC39B in mouse primary hepatocytes, single dose). Conditions: 100 nM, cytofectin, ~24 h, vs untreated control; gapmers targeted to SEQ ID NO: 6.
Format: cell-based
Description: Antisense oligonucleotides targeted to a TTC39B nucleic acid were tested for their effects on TTC39B mRNA in vitro. Cultured mouse primary hepatocytes at a density of 10,000 cells per well were transfected using cytofectin reagent with 100 nM antisense oligonucleotide. After a treatment period of approximately 24 hours, RNA was isolated from the cells and TTC39B mRNA levels were measured by quantitative real-time PCR. TTC39B mRNA levels were adjusted according to total RNA content, as measured by RIBOGREEN®. Results are presented as percent inhibition of TTC39B, relative to untreated control cells.
The chimeric antisense oligonucleotides in Tables 1 and 2 were designed as 5-10-5 MOE gapmers. The gapmers are 20 nucleotides in length, wherein the central gap segment is comprised of 10 2′-deoxynucleotides and is flanked on both sides (in the 5′ and 3′ directions) by wings comprising 5 nucleotides each. Each nucleotide in the 5′ wing segment and each nucleotide in the 3′ wing segment has a 2′-MOE modification. The internucleoside linkages throughout each gapmer are phosphorothioate (P═S) linkages. All cytosine residues throughout each gapmer are 5-methylcytosines. “Target start site” indicates the 5′-most nucleotide to which the gapmer is targeted. “Target stop site” indicates the 3′-most nucleotide to which the gapmer is targeted. Each gapmer listed in Table 1 is targeted to SEQ ID NO: 6 (GENBANK Accession No. NM_027238.2) and each gapmer listed in Table 2 is targeted to SEQ ID NO: 10 (the complement of GENBANK Accession No. NT—039260.7 truncated at nucleotides 22491001 to 22601000), SEQ ID NO: 11 (GENBANK Accession No. BY244623.1), SEQ ID NO: 12 (GENBANK Accession No. BY260936), SEQ ID NO: 13 (GENBANK Accession No. BM935568.1) or SEQ ID NO: 14 (GENBANK Accession No. BY728780.1).

| Substance | % inhibition of murine TTC39B mRNA [%] |
| --- | --- |
| AAAATATCTCTGAAGTTTAA (antisense eA*eA*eA*eA*eT*dA*dT*d[5mC]*dT*d[5mC]*dT*dG*dA*dA*dG*eT*eT*eT*eA*eA) [ISIS 447136] | 24 |
| ACAAAGTGAAAGCCGCTGGT (antisense eA*e[5mC]*eA*eA*eA*dG*dT*dG*dA*dA*dA*dG*d[5mC]*d[5mC]*dG*e[5mC]*eT*eG*eG*eT) [ISIS 447103] | 64 |
| ACAGTATCTTGAACATGACA (antisense eA*e[5mC]*eA*eG*eT*dA*dT*d[5mC]*dT*dT*dG*dA*dA*d[5mC]*dA*eT*eG*eA*e[5mC]*eA) [ISIS 447147] | 46 |
| AGATACAAGTCCCTTCTGCC (antisense eA*eG*eA*eT*eA*d[5mC]*dA*dA*dG*dT*d[5mC]*d[5mC]*d[5mC]*dT*dT*e[5mC]*eT*eG*e[5mC]*e[5mC]) [ISIS 447137] | 50 |
| AGCATCAAATTAAAGGCCCC (antisense eA*eG*e[5mC]*eA*eT*d[5mC]*dA*dA*dA*dT*dT*dA*dA*dA*dG*eG*e[5mC]*e[5mC]*e[5mC]*e[5mC]) [ISIS 447113] | 59 |
| AGGACCTTGATGGCCTTGTC (antisense eA*eG*eG*eA*e[5mC]*d[5mC]*dT*dT*dG*dA*dT*dG*dG*d[5mC]*d[5mC]*eT*eT*eG*eT*e[5mC]) [ISIS 447130] | 44 |
| AGTATGAGGGAGCCATTTGG (antisense eA*eG*eT*eA*eT*dG*dA*dG*dG*dG*dA*dG*d[5mC]*d[5mC]*dA*eT*eT*eT*eG*eG) [ISIS 447117] | 47 |
| ATCCACATTAATTCCCAGTA (antisense eA*eT*e[5mC]*e[5mC]*eA*d[5mC]*dA*dT*dT*dA*dA*dT*dT*d[5mC]*d[5mC]*e[5mC]*eA*eG*eT*eA) [ISIS 447120] | 65 |
| CAGTAAAGTCTTGATTCTGC (antisense e[5mC]*eA*eG*eT*eA*dA*dA*dG*dT*d[5mC]*dT*dT*dG*dA*dT*eT*e[5mC]*eT*eG*e[5mC]) [ISIS 447126] | 58 |
| CATCATTTCCAGGGCTGGCA (antisense e[5mC]*eA*eT*e[5mC]*eA*dT*dT*dT*d[5mC]*d[5mC]*dA*dG*dG*dG*d[5mC]*eT*eG*eG*e[5mC]*eA) [ISIS 447125] | 54 |
| CCAGACAGACACTCAGACCA (antisense e[5mC]*e[5mC]*eA*eG*eA*d[5mC]*dA*dG*dA*d[5mC]*dA*d[5mC]*dT*d[5mC]*dA*eG*eA*e[5mC]*e[5mC]*eA) [ISIS 447149] | 48 |
| CCCCGTTCCAAGCTTGACTC (antisense e[5mC]*e[5mC]*e[5mC]*e[5mC]*eG*dT*dT*d[5mC]*d[5mC]*dA*dA*dG*d[5mC]*dT*dT*eG*eA*e[5mC]*eT*e[5mC]) [ISIS 447112] | 62 |
| CCGCACACCCACAGGGAACT (antisense e[5mC]*e[5mC]*eG*e[5mC]*eA*d[5mC]*dA*d[5mC]*d[5mC]*d[5mC]*dA*d[5mC]*dA*dG*dG*eG*eA*eA*e[5mC]*eT) [ISIS 447099] | 56 |
| CCTGATAAATCACAAATGCT (antisense e[5mC]*e[5mC]*eT*eG*eA*dT*dA*dA*dA*dT*d[5mC]*dA*d[5mC]*dA*dA*eA*eT*eG*e[5mC]*eT) [ISIS 447150] | 46 |
| CGTGTCATTTATTAAATAAC (antisense e[5mC]*eG*eT*eG*eT*d[5mC]*dA*dT*dT*dT*dA*dT*dT*dA*dA*eA*eT*eA*eA*e[5mC]) [ISIS 447154] | 22 |
| CTTTATTGTACCTGCCAGTC (antisense e[5mC]*eT*eT*eT*eA*dT*dT*dG*dT*dA*d[5mC]*d[5mC]*dT*dG*d[5mC]*e[5mC]*eA*eG*eT*e[5mC]) [ISIS 447134] | 53 |
| GACAGCCTGCAACACCACAA (antisense eG*eA*e[5mC]*eA*eG*d[5mC]*d[5mC]*dT*dG*d[5mC]*dA*dA*d[5mC]*dA*d[5mC]*e[5mC]*eA*e[5mC]*eA*eA) [ISIS 447105] | 52 |
| GACTTTGAGATGGCACACAA (antisense eG*eA*e[5mC]*eT*eT*dT*dG*dA*dG*dA*dT*dG*dG*d[5mC]*dA*e[5mC]*eA*e[5mC]*eA*eA) [ISIS 447152] | 60 |
| GACTTTTAATTCAAAGTCCT (antisense eG*eA*e[5mC]*eT*eT*dT*dT*dA*dA*dT*dT*d[5mC]*dA*dA*dA*eG*eT*e[5mC]*e[5mC]*eT) [ISIS 447153] | 58 |
| GAGTACATTCAAATACAGGA (antisense eG*eA*eG*eT*eA*d[5mC]*dA*dT*dT*d[5mC]*dA*dA*dA*dT*dA*e[5mC]*eA*eG*eG*eA) [ISIS 447139] | 58 |
| GCAGCCATGGCCCTGGGTCA (antisense eG*e[5mC]*eA*eG*e[5mC]*d[5mC]*dA*dT*dG*dG*d[5mC]*d[5mC]*d[5mC]*dT*dG*eG*eG*eT*e[5mC]*eA) [ISIS 447141] | 40 |
| GCAGCTTTCAAGAACACATA (antisense eG*e[5mC]*eA*eG*e[5mC]*dT*dT*dT*d[5mC]*dA*dA*dG*dA*dA*d[5mC]*eA*e[5mC]*eA*eT*eA) [ISIS 447123] | 47 |

Same assay, conditions: 100 nM, cytofectin, ~24 h, vs untreated control; gapmers targeted to SEQ ID NO: 10-14

| Substance | % inhibition of murine TTC39B mRNA [%] |
| --- | --- |
| AAAGAGGAGTCCTTCCTTAA (antisense eA*eA*eA*eG*eA*dG*dG*dA*dG*dT*d[5mC]*d[5mC]*dT*dT*d[5mC]*e[5mC]*eT*eT*eA*eA) [ISIS 447160] | 63 |
| ACTCAGTCATACTTTTGGCA (antisense eA*e[5mC]*eT*e[5mC]*eA*dG*dT*d[5mC]*dA*dT*dA*d[5mC]*dT*dT*dT*eT*eG*eG*e[5mC]*eA) [ISIS 447168] | 35 |
| AGCCTTGTTCACTGGGAAGA (antisense eA*eG*e[5mC]*e[5mC]*eT*dT*dG*dT*dT*d[5mC]*dA*d[5mC]*dT*dG*dG*eG*eA*eA*eG*eA) [ISIS 447162] | 59 |
| ATCATATTTTCATCCTGAAA (antisense eA*eT*e[5mC]*eA*eT*dA*dT*dT*dT*dT*d[5mC]*dA*dT*d[5mC]*d[5mC]*eT*eG*eA*eA*eA) [ISIS 447170] | 35 |
| CCTTACCAAATTAAAGGCCC (antisense e[5mC]*e[5mC]*eT*eT*eA*d[5mC]*d[5mC]*dA*dA*dA*dT*dT*dA*dA*dA*eG*eG*e[5mC]*e[5mC]*e[5mC]) [ISIS 447171] | 23 |
| CGGAGATCAGTTTCTTCACT (antisense e[5mC]*eG*eG*eA*eG*dA*dT*d[5mC]*dA*dG*dT*dT*dT*d[5mC]*dT*eT*e[5mC]*eA*e[5mC]*eT) [ISIS 447165] | 50 |
| CTGATGAACTTGATTTAGCC (antisense e[5mC]*eT*eG*eA*eT*dG*dA*dA*d[5mC]*dT*dT*dG*dA*dT*dT*eT*eA*eG*e[5mC]*e[5mC]) [ISIS 447166] | 0 |
| GAATTATTTATTCTCACACC (antisense eG*eA*eA*eT*eT*dA*dT*dT*dT*dA*dT*dT*d[5mC]*dT*d[5mC]*eA*e[5mC]*eA*e[5mC]*e[5mC]) [ISIS 447167] | 56 |
